What was measured:
serum fucosylated PSA = test: Sandwich ELISA, anti-PSA antibody and biotin-labeled lectin; format: binding, human; conditions: for Δ (=A − B): reaction value of Prostate cancer 4 minus Healthy 1; for lectin reaction value B of Healthy 1: serum of Healthy 1; for lectin reaction value A of Prostate cancer 4: serum of Prostate cancer 4, GS 6 (3 + 3)
Method: The anti-PSA antibody from which sugar chains had been removed was diluted to 5 μg/mL with PBS. 25 μL of this diluted solution was added to each well of an ELISA plate and allowed to stand at 37° C. for 12 hours, and then the additive solution was discarded.
150 μL of PBS containing 0.05% Tween 20 (product name: polyoxyethylene sorbitan monolaurate, from Nacalai Tesque, Inc.) was added to each well, and then the additive solution was discarded. This manipulation was repeated three times in total.
25 μL of 1% BSA/PBS was added to each well and allowed to stand at 37° C. for 1 hour, and then the additive solution was discarded.
150 μL of PBS containing 0.05% Tween 20 was added to each well, and then the additive solution was discarded. This manipulation was repeated three times in total.
To graph a calibration curve, 25 μL of the fucosylated PSA reference standard diluted with 1% BSA/PBS to a concentration of 0 to 200 ng/mL was added to each well and allowed to stand at room temperature for 1 hour, and then the additive solution was discarded. In addition, to detect the fucosylated PSA in the serum of the subject by the lectin, 25 μL of serum of “Healthy 1” and “Prostate cancer 4” 2-fold diluted with PBS was added to each well and allowed to stand at room temperature for 1 hour, and then the additive solution was discarded.
In Reference Example 1, 25 μL of a biotin-labeled PhoSL diluted to 0.1 μg/mL with 0.1% BSA/PBS (pH 7.4) was added to each well and allowed to stand at 4° C. for 30 minutes, and then the additive solution was discarded. In Example 1, 25 μL of a biotin-labeled PhoSL diluted to 0.1 μg/mL with 0.1% BSA/10-fold diluted PBS+glycine-NaOH (pH 9.6) was added to each well and allowed to stand at 4° C. for 30 minutes, and then the additive solution was discarded.
25 μL of a horseradish peroxidase (HRP)-labeled streptavidin solution (from Vector Laboratories, Inc., concentration: 0.4 μg/mL, in 1% BSA/PBS) was added to each well and allowed to stand at room temperature for 30 minutes, and then the additive solution was discarded.
25 μL of chromogenic substrate for HRP (product name: TMB, from Kirkegaard & Perry Laboratories, Inc.) was added to each well and allowed to stand at room temperature for 10 minutes.
25 μL of 1M phosphoric acid was added to terminate the reaction.
Absorbance (Ab) at 450 nm and 630 nm was measured using a plate reader, and a measurement (Ab450-630) was obtained.
A calibration curve was graphed by plotting signals (reaction values, Ab450-630) of the fucosylated PSA reference standard with the biotin-labeled PhoSL. A Signal (Ab450-630) of the biotin-labeled PhoSL corresponding to the fucosylated PSA concentration of 10 ng/mL was defined as 10 U/mL.
The signals of biotin-labeled PhoSL (Ab450-630) for the serum fucosylated PSA in the subject samples A were assigned to the calibration curve to calculate reaction values (unit: U/mL).
The PhoSL reaction values for the subject samples A were measured by the same operation as in Example 1. From the PhoSL reaction values, an average value and a median value were determined. Furthermore, a standard cutoff value (89.7 U/mL) was used to determine a detection rate (positive rate) of the prostate cancer patients, and a false detection rate (false positive rate) of the healthy persons.
Comparative Example 2 in Table 9 indicates results of detecting the serum fucosylated PSA using AAL (AAL reaction values) in the subject samples A. Specifically, in Reference Example 1, AAL reaction values were measured in the same manner as in Reference Example 1 except that the biotin-labeled PhoSL was replaced with a biotin-labeled AAL. A standard cut-off value for the AAL reaction values was 894.8 U/mL. As in Example 2, an average value, a median value, a positive rate and a false positive rate were determined from the AAL reaction values.

[1] = FAC binding constant (Table 5 entry); conditions: Table 5: sugar chain having no fucose; at 25° C.
Method: (§1) Details of the FAC method are described in Patent Document 2 filed by some of the present applicants, for example.
(§2) Binding constants (at 25° C.) of PhoSL, SRL, NSL and LSL belonging to the fucose α1→6 specific lectin for various sugar chains are shown in Tables 2 to 5.

FAC binding constant = conditions: at 25° C.
Method: as §1, §2

[2] = sugar chain having fucose other than α1→6 fucose

NSL: fucose α1→6 specific lectin that can be extracted from Naematoloma sublateritium, SEQ ID No. 4 or 5
52000 M⁻¹: Binding constant for sugar chain No. 403 (FAC binding constant; sugar chain having α1→6 fucose)
39000 M⁻¹: Binding constant for sugar chain No. 202 (FAC binding constant; sugar chain having α1→6 fucose)
280000 M⁻¹: Binding constant for sugar chain No. 413 (FAC binding constant; sugar chain having α1→6 fucose)
240.3 U/mL: Δ (=A − B) (serum fucosylated PSA; pH in lectin reaction 9.6)
50000 M⁻¹: Binding constant for sugar chain No. 405 (FAC binding constant; sugar chain having α1→6 fucose)
43000 M⁻¹: Binding constant for sugar chain No. 404 (FAC binding constant; sugar chain having α1→6 fucose)
51000 M⁻¹: Binding constant for sugar chain No. 401 (FAC binding constant; sugar chain having α1→6 fucose)
399.7 U/mL: lectin reaction value A of Prostate cancer 4 (serum fucosylated PSA; pH in lectin reaction 7.4)
42.3 U/mL: lectin reaction value B of Healthy 1 (serum fucosylated PSA; pH in lectin reaction 9.6)
120000 M⁻¹: Binding constant for sugar chain No. 602 (FAC binding constant; sugar chain having α1→6 fucose)
177.7 U/mL: lectin reaction value B of Healthy 1 (serum fucosylated PSA; pH in lectin reaction 7.4)
220000 M⁻¹: Binding constant for sugar chain No. 410 (FAC binding constant; sugar chain having α1→6 fucose) | Binding constant for sugar chain No. 418 (FAC binding constant; sugar chain having α1→6 fucose)
<1000 M⁻¹: Binding constant for sugar chain No. 728 [1] | Binding constant for sugar chain No. 728 (FAC binding constant; Table 3: sugar chain having fucose other than α1→6 fucose) | Binding constant for sugar chain No. 419 (FAC binding constant; [2]) | Binding constant for sugar chain No. 420 (FAC binding constant; [2]) | Binding constant for sugar chain No. 718 (FAC binding constant; [2]) | Binding constant for sugar chain No. 719 (FAC binding constant; [2]) | Binding constant for sugar chain No. 720 (FAC binding constant; [2]) | Binding constant for sugar chain No. 721 (FAC binding constant; [2]) | Binding constant for sugar chain No. 722 (FAC binding constant; [2]) | Binding constant for sugar chain No. 723 (FAC binding constant; [2]) | Binding constant for sugar chain No. 726 (FAC binding constant; [2]) | Binding constant for sugar chain No. 727 (FAC binding constant; [2]) | Binding constant for sugar chain No. 729 (FAC binding constant; [2]) | Binding constant for sugar chain No. 730 (FAC binding constant; [2]) | Binding constant for sugar chain No. 731 (FAC binding constant; [2]) | Binding constant for sugar chain No. 739 (FAC binding constant; [2]) | Binding constant for sugar chain No. 909 (FAC binding constant; [2]) | Binding constant for sugar chain No. 910 (FAC binding constant; [2]) | Binding constant for sugar chain No. 931 (FAC binding constant; [2]) | Binding constant for sugar chain No. 932 (FAC binding constant; [2]) | Binding constant for sugar chain No. 933 (FAC binding constant; [2]) | Binding constant for sugar chain No. 001 (FAC binding constant; sugar chain having no fucose) | Binding constant for sugar chain No. 002 (FAC binding constant; sugar chain having no fucose) | Binding constant for sugar chain No. 003 (FAC binding constant; sugar chain having no fucose) | Binding constant for sugar chain No. 004 (FAC binding constant; sugar chain having no fucose) | Binding constant for sugar chain No. 005 (FAC binding constant; sugar chain having no fucose) | Binding constant for sugar chain No. 006 (FAC binding constant; sugar chain having no fucose) | Binding constant for sugar chain No. 007 (FAC binding constant; sugar chain having no fucose) | Binding constant for sugar chain No. 008 (FAC binding constant; sugar chain having no fucose) | Binding constant for sugar chain No. 009 (FAC binding constant; sugar chain having no fucose) | Binding constant for sugar chain No. 010 (FAC binding constant; sugar chain having no fucose) | Binding constant for sugar chain No. 011 (FAC binding constant; sugar chain having no fucose) | Binding constant for sugar chain No. 012 (FAC binding constant; sugar chain having no fucose) | Binding constant for sugar chain No. 013 (FAC binding constant; sugar chain having no fucose) | Binding constant for sugar chain No. 014 (FAC binding constant; sugar chain having no fucose) | Binding constant for sugar chain No. 101 (FAC binding constant; sugar chain having no fucose) | Binding constant for sugar chain No. 103 (FAC binding constant; sugar chain having no fucose) | Binding constant for sugar chain No. 104 (FAC binding constant; sugar chain having no fucose) | Binding constant for sugar chain No. 105 (FAC binding constant; sugar chain having no fucose) | Binding constant for sugar chain No. 107 (FAC binding constant; sugar chain having no fucose) | Binding constant for sugar chain No. 108 (FAC binding constant; sugar chain having no fucose) | Binding constant for sugar chain No. 301 (FAC binding constant; sugar chain having no fucose) | Binding constant for sugar chain No. 304 (FAC binding constant; sugar chain having no fucose) | Binding constant for sugar chain No. 305 (FAC binding constant; sugar chain having no fucose) | Binding constant for sugar chain No. 307 (FAC binding constant; sugar chain having no fucose) | Binding constant for sugar chain No. 308 (FAC binding constant; sugar chain having no fucose) | Binding constant for sugar chain No. 313 (FAC binding constant; sugar chain having no fucose) | Binding constant for sugar chain No. 314 (FAC binding constant; sugar chain having no fucose) | Binding constant for sugar chain No. 323 (FAC binding constant; sugar chain having no fucose) | Binding constant for sugar chain No. 501 (FAC binding constant; sugar chain having no fucose) | Binding constant for sugar chain No. 502 (FAC binding constant; sugar chain having no fucose) | Binding constant for sugar chain No. 503 (FAC binding constant; sugar chain having no fucose) | Binding constant for sugar chain No. 504 (FAC binding constant; sugar chain having no fucose) | Binding constant for sugar chain No. 701 (FAC binding constant; sugar chain having no fucose) | Binding constant for sugar chain No. 702 (FAC binding constant; sugar chain having no fucose) | Binding constant for sugar chain No. 703 (FAC binding constant; sugar chain having no fucose) | Binding constant for sugar chain No. 704 (FAC binding constant; sugar chain having no fucose) | Binding constant for sugar chain No. 705 (FAC binding constant; sugar chain having no fucose) | Binding constant for sugar chain No. 706 (FAC binding constant; sugar chain having no fucose) | Binding constant for sugar chain No. 707 (FAC binding constant; sugar chain having no fucose) | Binding constant for sugar chain No. 708 (FAC binding constant; sugar chain having no fucose) | Binding constant for sugar chain No. 709 (FAC binding constant; sugar chain having no fucose) | Binding constant for sugar chain No. 710 (FAC binding constant; sugar chain having no fucose) | Binding constant for sugar chain No. 711 (FAC binding constant; sugar chain having no fucose) | Binding constant for sugar chain No. 712 (FAC binding constant; sugar chain having no fucose) | Binding constant for sugar chain No. 713 (FAC binding constant; sugar chain having no fucose) | Binding constant for sugar chain No. 715 (FAC binding constant; sugar chain having no fucose) | Binding constant for sugar chain No. 716 (FAC binding constant; sugar chain having no fucose) | Binding constant for sugar chain No. 717 (FAC binding constant; sugar chain having no fucose) | Binding constant for sugar chain No. 724 (FAC binding constant; sugar chain having no fucose) | Binding constant for sugar chain No. 725 (FAC binding constant; sugar chain having no fucose) | Binding constant for sugar chain No. 732 (FAC binding constant; sugar chain having no fucose) | Binding constant for sugar chain No. 733 (FAC binding constant; sugar chain having no fucose) | Binding constant for sugar chain No. 734 (FAC binding constant; sugar chain having no fucose) | Binding constant for sugar chain No. 735 (FAC binding constant; sugar chain having no fucose) | Binding constant for sugar chain No. 736 (FAC binding constant; sugar chain having no fucose) | Binding constant for sugar chain No. 737 (FAC binding constant; sugar chain having no fucose) | Binding constant for sugar chain No. 738 (FAC binding constant; sugar chain having no fucose) | Binding constant for sugar chain No. 901 (FAC binding constant; sugar chain having no fucose) | Binding constant for sugar chain No. 902 (FAC binding constant; sugar chain having no fucose) | Binding constant for sugar chain No. 903 (FAC binding constant; sugar chain having no fucose) | Binding constant for sugar chain No. 905 (FAC binding constant; sugar chain having no fucose) | Binding constant for sugar chain No. 906 (FAC binding constant; sugar chain having no fucose) | Binding constant for sugar chain No. 907 (FAC binding constant; sugar chain having no fucose)
38000 M⁻¹: Binding constant for sugar chain No. 201 (FAC binding constant; sugar chain having α1→6 fucose)
240000 M⁻¹: Binding constant for sugar chain No. 601 (FAC binding constant; sugar chain having α1→6 fucose)
36000 M⁻¹: Binding constant for sugar chain No. 015 (FAC binding constant; sugar chain having α1→6 fucose) | Binding constant for sugar chain No. 402 (FAC binding constant; sugar chain having α1→6 fucose)
30000 M⁻¹: Binding constant for sugar chain No. 203 (FAC binding constant; sugar chain having α1→6 fucose)
282.6 U/mL: lectin reaction value A of Prostate cancer 4 (serum fucosylated PSA; pH in lectin reaction 9.6)
23000 M⁻¹: Binding constant for sugar chain No. 406 (FAC binding constant; sugar chain having α1→6 fucose)
222 U/mL: Δ (=A − B) (serum fucosylated PSA; pH in lectin reaction 7.4)

From US20200264182A1, “METHOD FOR DETECTING PROSTATE CANCER” (J-OIL MILLS, INC., priority 2017, published 2020)
